The test system of the test is PANC-1 cells. Briefly: Quantification of F-2,6-P2 in PANC-1 cells. It counts as cell-based. The following applies: Homo sapiens, PANC-1; read-out: IC50 based on quantification of F-2,6-P2. In short, it runs like this:
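Endogenous PFKFB3/PFKFB4 activity in PANC-1 cells, 18 h serum/glucose starvation in glucose-free DMEM/F12 with 0.25% FBS, then 1 h compound preincubation (50 and 10 μM, or dose response from 50 μM; 0.5% DMSO) at 37 °C. Glucose stimulation for 2 h, NaOH lysis, F-2,6-P2 quantified by Van Schaftingen coupled enzymatic assay against in-house standard.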

Here are results for two compounds from US9233946B2, “Sulfonamide compounds” (KANCERA AB, priority 2010, dated 2016).

A word on the IC50: it is the concentration needed to halve the response being measured. For the compound `Cc1c(S(=O)(=O)Nc2cccc(C(=O)O)c2)sc2ccc(C(C)C)cc12` [Example 5, 3-{[(5-Isopropyl-3-methyl-1-benzothien-2-yl)sulfonyl]amino}benzoic acid], the 50% inhibitory concentration (IC50) was found to be 2.3 µM.

For `Cc1c(S(=O)(=O)Nc2cccc(C(=O)O)c2)sc2ccc(Cl)cc12` [Example 38, 3-{[(5-Chloro-3-methyl-1-benzothien-2-yl)sulfonyl]amino}benzoic acid], the IC50 was found to be 10.1 µM.
